Laboratory results as given in paper PMC8732328 (Nature microbiology, 2021).

Test system: all eight Enterococcus or Streptococcus strains
Test: MIC against eight Enterococcus or Streptococcus strains
Assay type: cell-based, Enterococcus and Streptococcus spp.

Molecule	activity against all eight Enterococcus or Streptococcus strains
lysobactin	active
CN[C@H](CC(C)C)C(=O)N[C@H]1C(=O)N[C@@H](CC(N)=O)C(=O)N[C@H]2C(=O)N[C@H]3C(=O)N[C@H](C(=O)N[C@H](C(=O)O)c4cc(O)cc(O)c4-c4cc3ccc4O)[C@H](O)c3ccc(c(Cl)c3)Oc3cc2cc(c3O[C@@H]2O[C@H](CO)[C@@H](O)[C@H](O)[C@H]2O[C@H]2C[C@](C)(N)[C@H](O)[C@H](C)O2)Oc2ccc(cc2Cl)[C@H]1O [Van, vancomycin]	active
nisin	active
ramoplanin	active
